Test results taken from patent publication US20250171404A1, “PCNA INHIBITORS AND USES THEREOF” (CITY OF HOPE, priority 2022, published 2025).
Converted amounts (≈) assume the structure as drawn. Read-outs that look alike come from different tables or passages of the source. Values belong to the molecule of their own block, whether it stands above or below them.

Columns and labels:
SH-SY5Y = assay: Cell growth IC50, screening of AOH1160 analogs; format: cell-based; settings: Homo sapiens
Experimental: (§1) FIG. 29. IC50 data for select compounds. The indicated cell lines were seeded at 10^4 cells per well in a 96 well plate. After allowing to attach to the plate overnight, cells were treated with various concentrations of the indicated compounds in triplicates for 72 hrs. The cell growth was measured by an SRB assay. The cell abundances under each treatment condition relative to the baseline were averaged and graphed ±S.D. The baseline is defined as the median value of the cell abundances under the treatment by the two lowest compound concentrations. The IC50 was calculated by the Prism program.

SK-N-FI = assay: Cell growth IC50, screening of AOH1160 analogs; format: cell-based; settings: Homo sapiens
Experimental: as §1

MDA-MB-468 = assay: Cell growth IC50, screening of AOH1160 analogs; format: cell-based; settings: Homo sapiens, MDA-MB-468; read-out: IC50 values
Experimental: as §1

[1] = Cell growth IC50, screening of AOH1160 analogs (cell line not given); format: cell-based
Experimental: as §1

[2] = Solubility in aqueous buffer with 10% DMSO; format: physicochemical; settings: pH 7.4, aqueous with cosolvent or surfactant or cyclodextrin, read-out: soluble at concentration
Experimental: AOH1160LE was soluble at a 4 mM concentration in aqueous buffer with 10% DMSO, which enabled co-crystallization studies on this analog. A PCNA:AOH1160LE co-crystal diffracted to 2.85 Å resolution at the synchrotron source, and phasing was provided by molecular replacement. Four PCNA subunits were present in the asymmetric unit, with three, chains A, B, C belonging to the homotrimeric ring structure, and the fourth, chain D (FIG. 1C) forms part of an adjacent ring in the unit cell that consists solely of D chains. Packing within the unit cell also places each monomer subunit of the PCNA ring against a subunit from another ring; these two stacked subunits interact via their PIP box binding pockets and […] IDCLs that are orientated in directly opposing directions (FIG. 1D). Clearly observed within the electron density maps are three molecules of AOH1160LE, which bind in and adjacent to the PIP box cavity of each of the PCNA ring subunits, and these compounds have further interactions with the PIP box pocket of the stacked PCNA subunit (FIG. 1D).
Expression, purification and crystallization of PCNA. Human PCNA in a pET22b-hPCNA vector was transformed into E. coli Rosetta 2 (DE3) cells. PCNA expression was induced by 0.4 mM IPTG, OD600=0.6, and cells were grown for 5 hrs at 37° C. […]

PCNA = biological target: T1, PCNA (Homo sapiens, UniProt P12004); assay: Thermal denaturation (thermal shift) assay; format: binding; settings: 9 μM PCNA; 10 or 30 μM compound; dose dependent
T1 construct: made in house; host or cells: E. coli Rosetta 2 (DE3)
T1 sequence (P12004 whole entry): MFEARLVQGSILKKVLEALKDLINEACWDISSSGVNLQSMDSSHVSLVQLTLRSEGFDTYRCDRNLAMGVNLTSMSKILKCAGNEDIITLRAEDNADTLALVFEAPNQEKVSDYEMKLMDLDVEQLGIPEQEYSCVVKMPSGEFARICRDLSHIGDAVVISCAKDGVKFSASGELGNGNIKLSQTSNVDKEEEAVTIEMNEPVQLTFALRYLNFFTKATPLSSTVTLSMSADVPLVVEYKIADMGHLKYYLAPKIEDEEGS
Experimental: FIGS. 1A-1E. AOH1160 analog interactions with PCNA. FIG. 1A: Thermal shift assay: Normalized inverse derivative thermal denaturation plots of 9 μM apo-PCNA with DMSO control is depicted with a black dashed line and PCNA in the presence of 10 μM AOH1160LE is shown in light grey and 30 μM AOH1160LE in dark grey. ΔTm values are provided. FIG. 1B: As described in FIG. 1A, in the presence of 10 μM AOH1996 depicted in light grey and 30 μM AOH1996 depicted in dark grey. FIG. 1C: Four monomers (chains A-D) of PCNA are present in the asymmetric unit of the crystal. Chains A, B, and C form the homotrimer biological unit, while chain Dis orientated perpendicular to the plane of the ring, below the interface of chains B and C and it belongs to an adjacent ring. Inset: Three molecules of AOH1160LE bind in and adjacent to the PIP box cavity of each of the PCNA ring subunits. The omit map, gray mesh, is contoured to 1.56. Two PCNA monomer subunits from adjacent rings stack against each other, placing the PIP box and IDCLs of each subunit in opposing directions. FIG. 1D: The three AOH1160LE molecules are shown as stick figure representations. Two of the compounds, left and central, bind into the PIP box cavity at known PCNA-partner/compound interaction sites. […] The electrostatic surface maps are depicted with Poisson-Boltzmann electrostatic surface potentials shown in dark grey and light grey, corresponding to −10 to +10 kT/e respectively.
Targeting the PIP box and APIM binding domain of PCNA. AOH1160, a small molecule PCNA ligand, targets the cancer-distinct L126-Y133 region of PCNA (Malkas et al., 2006) and is selectively toxic to cancer cells (Gu et al., 2018). […]
Thermal denaturation assay for PCNA-AOH1996 interaction. […] Fluorescence intensity was measured within the excitation/emission ranges 470-505/540-700 nm.

SK-MEL-5 = assay: Cell growth IC50, screening of AOH1160 analogs; format: cell-based; settings: Homo sapiens
Experimental: as §1

SK-MEL-28 = assay: Cell growth IC50, screening of AOH1160 analogs; format: cell-based; settings: Homo sapiens
Experimental: as §1

Hela = assay: Cell growth IC50, screening of AOH1160 analogs; format: cell-based; settings: Homo sapiens, HeLa; read-out: IC50 values
Experimental: as §1

[3] = oral, 40 mg/kg, mice (Gu et al., 2018); cited from earlier work
SK-N-DZ = assay: Cell growth IC50, screening of AOH1160 analogs; format: cell-based; settings: Homo sapiens
Experimental: as §1

SK-N-AS = assay: Cell growth IC50, screening of AOH1160 analogs; format: cell-based; settings: Homo sapiens, read-out: IC50 values
Experimental: as §1

SK-N-BE(2)c = assay: Cell growth IC50, screening of AOH1160 analogs; format: cell-based; settings: Homo sapiens
Experimental: as §1

MDA-MB-231 = assay: Cell growth IC50, screening of AOH1160 analogs; format: cell-based; settings: Homo sapiens
Experimental: as §1

OVCAR8 = assay: Cell growth IC50, screening of AOH1160 analogs; format: cell-based; settings: Homo sapiens, OVCAR-8; OVCAR8; read-out: IC50 values
Experimental: as §1

- IC50 (SK-N-DZ): 237 nM
- IC50 (SK-N-AS): 107 nM
- IC50 (SK-N-BE(2)c): 325 nM
SMILES: O=C(CNC(=O)c1cccc2ccccc12)Nc1ccccc1Oc1ccccc1 [AOH1160]
- half-life [3]: 3.4 h

- IC50 (MDA-MB-231): 220 nM
- IC50 (OVCAR8): 410 nM
SMILES: O=C(CNC(=O)c1cccc2ccccc12)Nc1ccccc1Sc1ccccc1F [AOH1996S-2F, N-(2-((2-((2-fluorophenyl)thio)phenyl)amino)-2-oxoethyl)-1-naphthamide]

Second part, the molecule before the results:

SMILES: C[C@H](NC(=O)c1cccc2ccccc12)C(=O)Nc1ccccc1Oc1ccccc1 [AOH1160LA, (S)—N-(1-oxo-1-((2-phenoxyphenyl)amino)propan-2-yl)-1-naphthamide]
- IC50 (SH-SY5Y): 4000 nM
- IC50 (SK-N-FI): 3000 nM
- IC50 (MDA-MB-468): 4900 nM
- IC50 ([1]; FIG. 25, read-out: IC50): ~3000 nM

SMILES: O=C(O)CC[C@H](NC(=O)c1cccc2ccccc12)C(=O)Nc1ccccc1Oc1ccccc1 [AOH1160LE]
- solubility [2]: 4 mM (≈ 1870 µg/mL)
- shift of protein melting curves (ΔTm) (PCNA): ≤ 0.5 °C
- IC50 ([1]; read-out: IC50 values): > 10000 nM

SMILES: O=C(CNC(=O)c1cccc2ccccc12)Nc1ccccc1Sc1ccccc1 [AOH1160S, N-(2-oxo-2-((2-(phenylthio)phenyl)amino)ethyl)-1-naphthamide]
- IC50 (SK-MEL-5): 610 nM
- IC50 (SK-MEL-28): 340 nM
- IC50 (MDA-MB-468): 316 nM
- IC50 (Hela): 290 nM
